Measurements reported in ChEMBL document CHEMBL1123922.

Experiments:
[1] = target: Prostaglandin G/H synthase 1 (Ovis aries) (UniProt P05979); experiment: Inhibition of PGH synthase by measuring oxygen consumption with a Clark oxygen electrode at 100 uM; set-up: scale not given: the % may be the effect or the level left
[2] = target: Prostaglandin G/H synthase 1 (Ovis aries) (UniProt P05979); experiment: Inhibition of PGH synthase was determined by measuring oxygen consumption with a Clark oxygen electrode at 25 uM; set-up: scale not given: the % may be the effect or the level left

Prostaglandin G/H synthase 1 (Ovis aries), sequence (P05979 whole entry, looked up): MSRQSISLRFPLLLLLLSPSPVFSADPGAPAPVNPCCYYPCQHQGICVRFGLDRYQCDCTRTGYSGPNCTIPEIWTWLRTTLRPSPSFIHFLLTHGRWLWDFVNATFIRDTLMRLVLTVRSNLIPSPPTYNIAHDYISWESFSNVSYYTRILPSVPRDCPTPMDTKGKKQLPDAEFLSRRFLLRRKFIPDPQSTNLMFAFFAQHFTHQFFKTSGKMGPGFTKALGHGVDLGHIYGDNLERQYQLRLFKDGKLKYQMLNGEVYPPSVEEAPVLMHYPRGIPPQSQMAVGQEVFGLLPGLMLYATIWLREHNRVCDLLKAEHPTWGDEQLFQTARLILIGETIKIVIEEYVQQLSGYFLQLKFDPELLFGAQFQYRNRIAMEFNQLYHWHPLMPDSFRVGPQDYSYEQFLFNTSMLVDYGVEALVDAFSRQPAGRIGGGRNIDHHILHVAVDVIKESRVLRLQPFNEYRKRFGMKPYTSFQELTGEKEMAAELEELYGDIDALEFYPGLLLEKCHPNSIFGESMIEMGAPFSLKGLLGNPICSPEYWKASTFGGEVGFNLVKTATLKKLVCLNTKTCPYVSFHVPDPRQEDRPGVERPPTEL

Compound | Control [1] [%] | Control [2] [%]
O=C1C(CC#CCCl)C(=O)N(c2ccccc2)N1c1ccccc1 | 10 | 35
CCC(C)=C1C(=O)N(c2ccccc2)N(c2ccccc2)C1=O | 21 | 49
O=C1C(=C/C=C/c2ccccc2)C(=O)N(c2ccccc2)N1c1ccccc1 | 96 | 
CCCC=C1C(=O)N(c2ccccc2)N(c2ccccc2)C1=O | 18 | 29
CC(C)=C1C(=O)N(c2ccccc2)N(c2ccccc2)C1=O | 63 | 89
CC(C)(C#N)C1C(=O)N(c2ccccc2)N(c2ccccc2)C1=O | 5 | 23

Further lines, results first:

Control [1] [%] | Control [2] [%] | Compound
79 |  | O=C(CBr)NCCC1C(=O)N(c2ccccc2)N(c2ccccc2)C1=O
31 | 73 | CC(=C1C(=O)N(c2ccccc2)N(c2ccccc2)C1=O)c1ccccc1
42 | 78 | O=C(NCCC1C(=O)N(c2ccccc2)N(c2ccccc2)C1=O)Oc1ccccc1
90 |  | O=C(CCl)NCCC1C(=O)N(c2ccccc2)N(c2ccccc2)C1=O
